Measured values: article PMC8306904, “Discovery of New Hits as Antitrypanosomal Agents by In Silico and In Vitro Assays Using Neolignan-Inspired Natural Products from Nectandra leucantha” (Molecules, 2021)
Like-named read-outs stand apart in the source and are kept apart here.

How the values were obtained:
[1] = system: amastigote forms of T. cruzi; assay: Activity against amastigote forms of T. cruzi in infected macrophages; format: cell-based, Trypanosoma cruzi; conditions: for SI: selectivity index (ratio CC50/IC50): CC50 against NCTC cells/IC50 against amastigotes
Experimental: To perform the experiments, peritoneal macrophages from BALB/c mice were infected with trypomastigotes forms of T. cruzi. The macrophages obtained from the peritoneal cavity of BALB/c mice were seeded on a 16-well chamber slide (NUNC plate, Merck; 1 × 10^5/well) and incubated for 24 h at 37 °C in a 5% CO2-humidified incubator. The trypomastigotes LLC-MK2 were counted and used to infect the macrophages (parasite:macrophage ratio = 10:1). After 2 h incubation at 37 °C in a 5% CO2-humidified incubator, free parasites were removed by 1× washing with the medium. […] Benznidazole was used as the standard drug. At the end of the assay, slides were fixed with MeOH, stained with Giemsa, and counted using light microscopy. The IC50 values were calculated as previously reported.

[2] = Cytotoxicity against mammalian cells (MTT); format: cell-based; conditions: mouse, NCTC clone L929 cells (murine conjunctive cells)
Experimental: The optical density was determined using FilterMax F5 (Molecular Devices) at 570 nm. We calculated the selectivity index (SI) values using the following equation: CC50 against NCTC cells/IC50 against amastigotes.

NCTC cells-clone L929 = system: NCTC cells-clone L929; design: method as in PMID 28864277, PMID 31103897, PMID 33047947; conditions: read-out: CC50, 50% cytotoxic concentration in NCTC cells (ATCC, clone 929); compounds 9–33 and 36–50; ref [8],[10],[26]; cited from earlier work
[3] = system: amastigote forms of T. cruzi; design: method as in PMID 28864277, PMID 31103897, PMID 33047947; conditions: read-out: IC50, 50% inhibitory concentration against amastigote forms of T. cruzi; intracellular amastigotes; compounds 9–33 and 36–50; ref [8],[10],[26]; cited from earlier work
[4] = Trypanosoma cruzi, Macrophage, -log IC50 against amastigotes, Table 1 and Figure 7, read-out: pIC50 Experimental (converted)
[5] = Trypanosoma cruzi, Peritoneal macrophage, in Mus musculus, 48 h, read-out: IC50, 50% inhibitory concentration against amastigote forms of T. cruzi, intracellular amastigotes in BALB/c peritoneal macrophages, 48 h, 30 to […]
[6] = Trypanosoma cruzi, Macrophage, Table S2, -log IC50, supplement numbering, read-out: pIC50 (converted)

SMILES | SI: selectivity index (ratio CC50/IC50) [1] | IC50 [1, 4] [µM] | IC50 [1, 5] [µM] | CC50 at 48 h [2] [µM] | IC50 [1, 6] [µM] | pIC50 Experimental ([1]; -log IC50 against amastigotes, Table 1 and Figure 7) | IC50 ([1]; Trypanosoma cruzi, Macrophage, Table S1, test set, supplement numbering, read-out: Exp. pIC50 (converted)) [µM] | IC50 ([1]; read-out: IC50, 50% inhibitory concentration against amastigote forms of T. cruzi, intracellular amastigotes in BALB/c peritoneal macrophages, 48 h, 30 to […]) [µM] | CC50 (NCTC cells-clone L929) [µM] | IC50 [3] [µM]
O=C(Cn1ccnc1[N+](=O)[O-])NCc1ccccc1 [Bzd, benznidazole, reference compound] | 34.5 | 5.5 | 5.5 ± 1.4 | 190 ± 13.5 |  |  |  |  |  | 
C=CCc1ccc(Oc2cc([C@@H](O)C=C)cc(OC)c2O)c(OC)c1 [Compound 3, 1-[(7S)-hydroxy-8-propenyl]-3-[3′-methoxy-1′-(8′-propenyl)-phenoxy]-4-hydroxy-5-methoxybenzene] |  | > 30 | > 30 | > 200 |  |  |  |  |  | 
C=CCc1ccc(Oc2cc([C@@H](O)C=C)cc(OC)c2OC)c(OC)c1 [Compound 4, 1-[(7S)-hydroxy-8-propenyl]-3-[3′-methoxy-1′-(8′-propenyl)-phenoxy]-4,5-dimethoxybenzene] | >14.0 | 14.5 | 14.3 ± 1.9 | > 200 | 7.94 |  |  |  |  | 
C=CCc1ccc(Oc2cc(C(=O)C=C)cc(OC)c2O)c(OC)c1 [Compound 5, 4-hydroxy-5-methoxy-3-[3′-methoxy-1′-(8′-propenyl)phenoxy]-1-(7-oxo-8-propenyl)benzene] |  | > 30 | > 30 | > 200 | 10 |  |  |  |  | 
C=CCc1ccc(Oc2cc(C(=O)C=C)cc(OC)c2OC)c(OC)c1 [Compound 6, 4,5-dimethoxy-3-[3′-methoxy-1′-(8′-propenyl)phenoxy]-1-(7-oxo-8-propenyl)benzene] | >7.6 | 26.3 | 26.3 ± 1.3 | > 200 | 30.2 |  |  |  |  | 
C=CCc1ccc(Oc2cc(C(=O)C=C)cc(OC)c2OC(C)=O)c(OC)c1 [Compound 7, 4-Acetoxy-5-methoxy-3-[3′-methoxy-1′-(8′-propenyl)phenoxy]-1-(7-oxo-8-propenyl)benzene] | >47.6 | 4.27 | 4.3 | > 200 |  | 5.38 | 9.55 | 4.2 ± 1.1 |  | 
C=CCc1ccc(Oc2cc(CC=C)cc(OC)c2OCCCCC)c(OC)c1 [Compound 8] |  | > 30 | > 30 | > 200 |  |  |  |  |  | 
CCCOc1c(OC)cc(CCC)cc1Oc1ccc(CCC)cc1OC [Compound 18] |  | > 30 |  |  | 87.1 |  |  |  | > 200 | > 30
CCCc1ccc(Oc2cc(CCC)cc(OC)c2OC)c(OC)c1 [Compound 22] |  | > 30 |  |  |  |  |  |  | > 200 | > 30
COc1cc(CC2CO2)ccc1Oc1cc(CC2CO2)cc(OC)c1OC (stereo not drawn) [Compound 25] |  | > 30 |  |  |  |  |  |  | > 200 | > 30
COc1cc(CC(C)O)ccc1Oc1cc(CC(C)O)cc(OC)c1OC (stereo not drawn) [Compound 31] | >15.0 | 13.2 |  |  | 28.2 |  |  |  | > 200 | 13.3 ± 3.6
C=CCc1cc(OC)cc(Oc2cc(CC=C)cc(OC)c2OS(=O)(=O)C(F)(F)F)c1 [Compound 33] |  | > 30 |  |  | 4.27 |  |  |  | > 200 | > 30
C=CCc1cc(OC)cc(Oc2ccc(CC=C)cc2OC)c1 [Compound 34] | >34.5 | 5.75 | 5.8 ± 0.7 | > 200 |  |  |  |  |  | 
CCCc1cc(OC)cc(Oc2ccc(CCC)cc2OC)c1 [Compound 35] | >18.3 | 11 | 10.9 ± 6.5 | > 200 |  |  |  |  |  | 
C=CCc1ccc(Oc2cc(CCC)cc(OC)c2O)c(OC)c1 [Compound 37] | 1.4 | 10.5 |  |  |  |  |  |  | 14.2 ± 0.1 | 10.5 ± 8.3
C=CCc1cc(OC)c(OC)c(Oc2ccc(CCC)cc2OC)c1 [Compound 38] | >17.1 | 11.7 |  |  |  |  |  |  | > 200 | 11.7 ± 7
C=CCc1cc(OC)c(OCc2ccc(OC)cc2)c(Oc2ccc(CCC)cc2OC)c1 [Compound 40] | >23.3 | 8.51 |  |  |  |  |  |  | > 200 | 8.6 ± 2.1
C=CCc1ccc(Oc2cc(CCC)cc(OC)c2OCc2ccc(OC)cc2)c(OC)c1 [Compound 41] | >14.9 | 13.5 |  |  |  |  |  |  | > 200 | 13.4 ± 5.4
C=CCc1ccc(Oc2cccc(OC)c2OC)c(OC)c1 [Compound 42] | >7.8 | 25.7 |  |  |  |  |  |  | > 200 | 25.7 ± 12.2
C=CCc1ccc(Oc2cc(CC=C)cc(OC)c2O)cc1 [Compound 45] | 5.5 | 22.4 |  |  |  |  |  |  | 123 ± 9.8 | 22.5 ± 18.8
C=CCc1ccc(Oc2cc(CC=C)cc(OC)c2OCc2ccc(OC)cc2)cc1 [Compound 46] | >18.2 | 11.5 |  |  | 11 |  |  |  | > 200 | 11 ± 2.3
C=CCc1cc(OC)c(OC)c(Oc2ccccc2OC)c1 [Compound 47] |  | > 30 |  |  |  |  |  |  | > 200 | > 30
C=CCc1cc(OC)c(OCc2ccc(OC)cc2)c(Oc2ccccc2OC)c1 [Compound 48] |  | > 30 |  |  |  |  |  |  | > 200 | > 30
C=CCOc1c(OC)cccc1Oc1ccc(CC=C)cc1OC [Compound 49] |  | > 30 |  |  |  |  |  |  | > 200 | > 30
